From US4980377A, “1-(aminophenyl)-2-aminopropanone derivatives” (Laboratoire L. Lafon, priority 1984, dated 1990)
“Also recorded” adds a separate entry of the source. Counter-ions that a name gives are not always drawn.

What was measured:
humans = experiment: Clinical study: vasodilator; type: in vivo, human
Source text: In the treatment of diseases associated with the blood circulation through the vessels.

man = experiment: Clinical study: treatment of depressions; type: in vivo, human
mice [1] = experiment: Spontaneous motility; type: in vivo, mouse; conditions: gastric
Method: 0.5 hour after they have received CRL 41 153, the mice (6 per dose, 12 control animals) are placed in an actimeter, where their motility is recorded for 30 minutes.

male mice = experiment: Acute toxicity by intraperitoneal administration; type: in vivo, mouse; conditions: i.p.
Method: (§1) In the neuropsychopharmacological study which follows, a solution of CRL 41 153 in distilled water (pH 1.5) was administered intraperitoneally in a volume of 20 ml/kg to male mice and 5 ml/kg to male rats.

[2] = Acute toxicity by intraperitoneal administration; type: in vivo, mouse; conditions: mouse, in vivo, ip; male mice
Method: as §1

mice [3] = experiment: Interaction with apomorphine in mice; type: in vivo, mouse; conditions: gastric, apomorphine 16 mg/kg s.c.
Method: Groups of 6 mice receive CRL 41 153 0.5 hour before the subcutaneous injection of 1 or 16 mg/kg of apomorphine.

mice [4] = experiment: Overall behavior and reactivities in mice; type: in vivo, mouse; conditions: i.p.
Method: as §1
(§2) Groups of three animals are observed before and then 0.25 hour, 0.50 hour, 1 hour, 2 hours, 3 hours and 24 hours after the administration of CRL 41 153.

rats [5] = experiment: Overall behavior and reactivities in rats; type: in vivo, rat; conditions: for Observed symptoms: i.p.
Method: as §1, §2

mice [6] = experiment: Interaction with barbital; type: in vivo, mouse; conditions: gastric
Method: Half an hour after the administration of CRL 41 153, groups of 10 mice receive an intraperitoneal injection of barbital (220 mg/kg).

rats [7] = experiment: Investigation of stereotype movements; type: in vivo, rat; conditions: i.p., compared with amphetamine 2 mg/kg, hydrochloride
Method: Immediately after the intraperitoneal administration of CRL 41 194 or amphetamine, groups of 6 rats are placed in Plexiglass boxes (20×10×10 cm). The stereotype movements are graded from 0 to 3 every 10 minutes until they wear off.
Groups of 6 rats receive an intraperitoneal injection of CRL 41 213, distilled water or amphetamine immediately before being placed in small cages, where their stereotype behavior is graded every 10 minutes until the effect wears off.

CNS = experiment: Neuropsychopharmacological profile as a whole; type: in vivo, mice and rats; conditions: conclusion of the tests
Method: as §1

[8] = pH of solutions in distilled water; type: physicochemical; conditions: administered solution in distilled water, concentration not given
Method: The neuropsychopharmacological study was undertaken according to the procedures described above for CRL 41 153, CRL 41 213 being adminstered intraperitoneally, in solution in distilled water, in a volume of 20 ml/kg to male mice and a volume of 5 ml/kg to male rats, and the pH of the injected solution varying with the concentration of CRL 41 213 according to the data given in Table II below.

immunity = experiment: Immunological study (overall); conditions: in vivo; hydrochloride
[9] = tested on: gravid White New Zealand female rabbits; experiment: Teratogenicity in gravid White New Zealand rabbits; type: in vivo, rabbit; conditions: day 5 to day 18 of gestation; for Affected foetuses, %: normal limit 1.5%
In short: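 Fetuses harvested by cesarean on gestation day 29 were scored for number and for any malformation (limb blockade, anury, tail or skull defects, exencephaly).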

[10] = tested on: cellular and humoral immunity; experiment: Delayed hypersensitivity to the red blood corpuscles of sheep; type: in vivo
dogs = experiment: Cardiovascular study in anesthetized dogs; type: in vivo, dog
In short: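 Nembutal-anaesthetized dogs (~14 kg) given CRL 41 194 (n=2) or CRL 41 221 (n=4) intraduodenally at successive 0.1, 0.5, 1, 2.5, 5 and 10 mg/kg doses. Blood pressure, heart rate, femoral and vertebral flow, rectal temperature measured; skin colour observed, plus bile colour (CRL 41 194).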

[11] = tested on: cellular and humoral immunity; experiment: Test for cells forming lysis areas; conditions: in vivo
[12] = Particular toxicity in grouped mice; conditions: mouse, ip
Method: (§3) The number of dead animals is noted after 1 hour, 2 hours, 3 hours, 4 hours and 24 hours.

mice [13] = experiment: Particular toxicity in grouped mice; conditions: mice
Method: as §3

[14] = anesthetized dogs, intraduodenal
[15] = dogs, after product, isoprenaline 10 μg/kg
[16] = dogs, after product, norepinephrine 2 μg/kg

## CC(C)NC(C)C(=O)c1cc(Cl)c(N)c(Cl)c1 (centres unmarked) [CRL 41 194, 1-(4-amino-3,5-dichlorophenyl)-2-isopropylaminopropanone hydrochloride]
humans
  Vasodilator in human clinical use: very active as a vasodilator
man
  Result in the treatment of depressions: excellent results on man in the treatment of depressions at a dose of 3×5 mg per day
Mice [1]
  Spontaneous motor activity: At the strongest dose administered gastrically (32 mg/kg), CRL 41 194 slightly reduces the spontaneous motor activity of mice
Male mice
  LD0 (maximum non-lethal dose): greater than 32 mg/kg
[2]
  LD50: 86 mg/kg
Mice [3]
  Effect on hypothermia induced by apomorphine: as from a dose of 2 mg/kg, administered gastrically, CRL 41 194 opposes the hypothermia
  Effect on righting behavior and stereotypies induced by apomorphine: without modifying the righting behavior and the stereotypies
Mice [4]; 0.25 mg/kg
  Observed symptoms: weak excitation 24 hours after administration
Mice [4]; 1 mg/kg
  Observed symptoms: weak excitation 24 hours after administration
Mice [4]; 4 mg/kg
  Observed symptoms: weak excitation and an increase in the reactivity to touch about 24 hours after administration
Mice [4]; 16 mg/kg, hydrochloride
  Observed symptoms: weak excitation 24 hours after administration; also recorded: an increase in the reactivity to touch for 24 hours; also recorded: dyspnea for 3 hours; also recorded: mydriasis for 2 hours (at a maximum 1 hour after administration); also recorded: dilation of the caudal veins for 2 hours
Rats [5]; dose not stated
  Stereotype movements (summary): stereotype movements (of moderate intensity)
Rats [5]; 0.125 mg/kg
  Observed symptoms: mydriasis for 2 hours (at a maximum 0.5 hour after administration)
Rats [5]; 0.5 mg/kg
  Observed symptoms: dyspnea for 0.5 hour
Rats [5]; 2 mg/kg, hydrochloride
  Observed symptoms: mydriasis at a maximum 0.5 hour after administration; also recorded: dyspnea for 2 hours
Rats [5]; 8 mg/kg, hydrochloride
  Observed symptoms: piloerection for 1 hour; also recorded: mydriasis for 2 hours (at a maximum 0.5 hour after administration); also recorded: dyspnea for 2 hours
Mice [6]
  Duration of the sleep induced by barbital: At the strongest dose administered gastrically (32 mg/kg), CRL 41 194 reduces the duration of the sleep induced by barbital in mice
Rats [7]
  Stereotype movements: At the strongest dose used (16 mg/kg), CRL 41 194 causes the appearance of stereotype movements; also recorded: The intensity of the effect obtained with 16 mg/kg is slightly lower than that obtained with 2 mg/kg of amphetamine
CNS
  Antidepressant effects (overall): is an antidepressant
[8]
  pH: 4.5
immunity
  Immunological effect (overall): immunostimulant or immunomodulating effects; also recorded: beneficial immunological properties; also recorded: behaves as an immunomodulating agent
[9]; 5 mg/kg daily
  Affected foetuses, number: 1
  Total foetuses (live): 95
  Affected foetuses, %: 1.10%
[9]; 10 mg/kg daily
  Affected foetuses, number: 0
  Total foetuses (live): 91
  Affected foetuses, %: 0%
[10]
  Activity on the delayed hypersensitivity reaction: active on the cellular and humoral immunity
dogs
  Vasodilator (conclusion): good vasodilator
dogs; anesthetized dogs
  Effect on hypertension induced by norepinephrine: slightly reduced
  Effects of isoprenaline on the blood pressure: reduced as regards the blood pressure
  Rectal temperature: the rectal temperature and skin temperature rose
  Skin temperature: the rectal temperature and skin temperature rose
dogs; anesthetized dogs, after accumulated dose of 19.1 mg/kg intraduodenal
  Effects of isoprenaline on the heart rate: not modified as regards the heart rate
dogs; [14]
  Blood pressure: A drop in the diastolic blood pressure is observed at 5 mg/kg
  Differential blood pressure: an increase in the differential blood pressure as from the smallest doses
  Femoral flow: At 0.5 mg/kg, the femoral flow increases
  Heart rate: At 0.5 mg/kg, the femoral flow increases at the same time as the heart rate
  Respiration: Both dogs received respiratory stimulation
  Vertebral flow: increases the vertebral flow as from a dose of 0.1 mg/kg
dogs; [15]
  Diastolic blood pressure after isoprenaline: 64 mm Hg
  Diastolic blood pressure before isoprenaline: 126 mm Hg
  Heart rate after isoprenaline: 262 beats/minute
dogs; [16]
  Systolic blood pressure after norepinephrine: 266 mm Hg
  Systolic blood pressure before norepinephrine: 208 mm Hg
[11]
  Activity in the test for cells forming lysis areas: active on the cellular and humoral immunity
[12]; grouped mice
  LD50: 27 mg/kg
[12]; in vivo
  selectivity ratio: 3.19
[12]; isolated mice
  LD50: 86 mg/kg
Mice [13]
  Particular toxicity to grouped mice: more toxic to grouped mice than to isolated mice
